# Reference: patent US6613308B2, “Pulmonary delivery in treating disorders of the central nervous system” (Advanced Inhalation Research, Inc., priority 2000, dated 2003)
# What was measured:
# PZT-induced seizures = test: PZT-induced seizures; type: in vivo, rats; details: for Duration of Seizure / Minutes to Seizure Onset: mean
# Procedure: The pharmacodynamic effects of a pulmonary versus oral benzodiazepine-type drug, alprazolam, were evaluated using a standard pre-clinical test of anxiolytic drug action. In this test, the chemical convulsant pentylenetetrazol (PZT), which is known to produce well characterized seizures in rodents, was administered to rats. The test was selected based on its sensitivity to a wide range of benzodiazapines and to the fact that the relative potency of benzodiazapines in blocking PZT-induced seizures is believed to be similar to the magnitude of their anti-anxiety effects in humans. The ability of alprazolam to block PZT-induced seizures was used as a measure of the pharmacodynamic effects of alprazolm.
# Determinations of the […] activity of alprazolam were made following oral gavage, or insufflation directly into the lungs of rats. Alprazolam (Sigma, St. Louis, Mo. was administered via aerodynamically light particles which included 10% alprazolam, 20% sodium citrate, 10% calcium chloride and 60% DPPC. For oral delivery, alprazolam was suspended in light corn syrup and administered via gavage. For pulmonary delivery, an insufflation technique was used. Animals were briefly anesthetized with isoflurane (1-2%) and a laryngoscope was used to visualize the epiglottis and the blunt-tip insufflation device (PennCentury Insufflation powder delivery device) was inserted into the airway. A bolus of air (3 cc), from an attached syringe, was used to deliver the pre-loaded powder from the chamber of the device into the animals' lungs. The doses for pulmonary delivery were 0 (blank particles that included 20% sodium citrate, 10% calcium chloride and 70% DPPC), 0.088, 0.175, or 0.35 mgs total alprazolam, and the doses for oral delivery were 0, 0.088, 0.175, 0.35, 0.70, 1.75, or 3.50 mgs total alprazolam. These doses were chosen to encompass the range of effective and ineffective oral doses. Accordingly, any potential benefits of pulmonary delivery could be directly compared to the oral dose response curve for alprazolam.
# For both oral and pulmonary delivery, alprazolam was administered either 10 or 30 minutes prior to PZT, obtained from Sigma, St. Louis, Mo., (60 mg/kg given i.p). To control for potential interactions between alprazolam and isoflurane, all animals receiving oral alprazolam also received isoflurane immediately following dosing as described above. For all animals, the number of seizures as well as the time to seizure onset and seizure duration was recorded for 45 minutes after administration of PZT.
# [1] = 14C levels in plasma, brain and peripheral organs after 14C-carboplatin IV or pulmonary administration; type: in vivo, rat; details: 10 minutes; for Plasma Levels of 14C: 100 μCi/8 mg
# Procedure: Blood, brain and peripheral organ levels of ^14C were determined following administration of ^14C-Carboplatin via either IV or pulmonary administration. A total of 100 μCi of radiolabeled carboplatin was mixed with unlabelled carboplatin to provide a total drug concentration of 8 mg/rat. All animals were anesthetized using ketamine. For IV administration, carboplatin was administered via a previously placed femoral cannula. For pulmonary administration, a 24 gauge catheter was placed within the trachea and the carboplatin was administered using a Harvard ventilator over a 3-5 second period using a tidal volume of 1 ml and 100 strokes/minutes. Blood samples were taken at 10 minutes post drug administration (N=6 per time point for each group). Brains were removed and dissected into various regions including the olfactory, frontal, and occipital cortices, the hippocampus, striatum, and cerebellum. Peripheral organs included the kidneys, spleen, heart, testes, and muscle. All samples were then processed for determinations of ^14C levels using scintillation.
# Absolute plasma levels of ^14C were higher following IV administration. […] This point is clearer when the ratio of brain to blood ^14C levels was calculated. […] Absolute levels of ^14C in peripheral tissue was also lower following pulmonary administration (92% lower relative to IV). In contrast to the large differences in selectivity seen in the brain, the relative peripheral selectivity (derived from dividing the levels of radioactivity in peripheral organs by that in the blood) was only 47% higher in the pulmonary group.
# [2] = oral, 10 minutes prior to PZT, 0.35 mgs
# [3] = oral, 10 minutes prior to PZT, 0.70 mgs
# [4] = oral, 10 minutes prior to PZT, 1.75 mgs
# [5] = oral, 10 minutes prior to PZT, 3.50 mgs
# [6] = oral, 30 minutes prior to PZT, 0.088 mgs
# [7] = oral, 30 minutes prior to PZT, 0.175 mgs
# [8] = oral, 30 minutes prior to PZT, 0.35 mgs
# [9] = pulmonary, 10 minutes prior to PZT, 0.088 mgs
# [10] = pulmonary, 10 minutes prior to PZT, 0.175 mgs
# [11] = pulmonary, 10 minutes prior to PZT, 0.35 mgs
# [12] = pulmonary, 10 minutes prior to PZT, 0.35 mgs, listed as alprazolam
# [13] = pulmonary, 30 minutes prior to PZT, 0.088 mgs
# [14] = pulmonary, 30 minutes prior to PZT, 0.175 mgs
# [15] = pulmonary, 30 minutes prior to PZT, 0.35 mgs
smiles,measurement,setting,value
"Cc1nnc2n1-c1ccc(Cl)cc1C(c1ccccc1)=NC2 [Alprazolam, alprazolam]",pulmonary dose lower than maximally effective oral dose for comparable decrease in seizure duration,"PZT-induced seizures; 10 minutes prior to PZT, 0.088 vs 3.50 mgs",~40 fold
same,oral dose relative to pulmonary dose for comparable time to seizure onset,"PZT-induced seizures; 10 minutes prior to PZT, 0.35 vs 3.50 mgs",10 times
same,oral dose required relative to pulmonary dose for comparable seizure suppression,"PZT-induced seizures; 10 minutes prior to PZT, 3.50 vs 0.35 mgs",approximately 10 times
same,lowest oral dose that significantly increases time to seizure onset,"PZT-induced seizures; oral, 10 minutes prior to PZT",1.75 mgs
same,maximally effective oral dose on seizure duration,"PZT-induced seizures; oral, 10 minutes prior to PZT",3.50 mgs
same,Animals With Seizures,PZT-induced seizures; [2],13/15
same,Animals With Seizures (%),PZT-induced seizures; [2],(87%)
same,Duration of Seizure,PZT-induced seizures; [2],88.0 s
same,Minutes to Seizure Onset,PZT-induced seizures; [2],11.49 min
same,Animals With Seizures,PZT-induced seizures; [3],13/15
same,Animals With Seizures (%),PZT-induced seizures; [3],(87%)
same,Duration of Seizure,PZT-induced seizures; [3],62.07 s
same,Minutes to Seizure Onset,PZT-induced seizures; [3],9.24 min
same,Animals With Seizures,PZT-induced seizures; [4],7/15
same,Animals With Seizures (%),PZT-induced seizures; [4],(47%)
same,Duration of Seizure,PZT-induced seizures; [4],14.47 s
same,Minutes to Seizure Onset,PZT-induced seizures; [4],29.03 min
same,Animals With Seizures,PZT-induced seizures; [5],2/14
same,Animals With Seizures (%),PZT-induced seizures; [5],(14%)
same,Duration of Seizure,PZT-induced seizures; [5],5.40 s
same,Minutes to Seizure Onset,PZT-induced seizures; [5],43.37 min
same,Animals With Seizures,PZT-induced seizures; [6],11/15
same,Animals With Seizures (%),PZT-induced seizures; [6],(73%)
same,Duration of Seizure,PZT-induced seizures; [6],46.0 s
same,Minutes to Seizure Onset,PZT-induced seizures; [6],18.38 min
same,Animals With Seizures,PZT-induced seizures; [7],7/15
same,Animals With Seizures (%),PZT-induced seizures; [7],(47%)
same,Duration of Seizure,PZT-induced seizures; [7],15.0 s
same,Minutes to Seizure Onset,PZT-induced seizures; [7],33.10 min
same,Animals With Seizures,PZT-induced seizures; [8],4/15
same,Animals With Seizures (%),PZT-induced seizures; [8],(27%)
same,Animals With Seizures (%),"PZT-induced seizures; oral, 30 minutes prior to PZT, 0.35 mgs, listed as alprazolam",27%
same,Duration of Seizure,PZT-induced seizures; [8],19.0 s
same,Minutes to Seizure Onset,PZT-induced seizures; [8],37.58 min
same,Animals With Seizures,PZT-induced seizures; [9],5/15
same,Animals With Seizures (%),PZT-induced seizures; [9],(33%)
same,Animals With Seizures (%),"PZT-induced seizures; pulmonary, 10 minutes prior to PZT, 0.088 mgs, listed as alprazolam",33%
same,Duration of Seizure,PZT-induced seizures; [9],7.0 s
same,Minutes to Seizure Onset,PZT-induced seizures; [9],36.71 min
same,Animals With Seizures,PZT-induced seizures; [10],3/15
same,Animals With Seizures (%),PZT-induced seizures; [10],(20%)
same,Duration of Seizure,PZT-induced seizures; [10],8.0 s
same,Minutes to Seizure Onset,PZT-induced seizures; [10],38.61 min
same,Animals With Seizures,PZT-induced seizures; [11],2/15
same,Animals With Seizures (%),PZT-induced seizures; [11],(13%)
same,Animals With Seizures (%),PZT-induced seizures; [12],13%
same,Duration of Seizure,PZT-induced seizures; [11],4.0 s
same,Minutes to Seizure Onset,PZT-induced seizures; [11],42.28 min
same,Minutes to Seizure Onset,PZT-induced seizures; [12],> 42 min
same,Animals With Seizures,PZT-induced seizures; [13],9/15
same,Animals With Seizures (%),PZT-induced seizures; [13],(60%)
same,Duration of Seizure,PZT-induced seizures; [13],82.67 s
same,Minutes to Seizure Onset,PZT-induced seizures; [13],18.47 min
same,Animals With Seizures,PZT-induced seizures; [14],5/15
same,Animals With Seizures (%),PZT-induced seizures; [14],(33%)
same,Duration of Seizure,PZT-induced seizures; [14],16.07 s
same,Minutes to Seizure Onset,PZT-induced seizures; [14],34.05 min
same,Animals With Seizures,PZT-induced seizures; [15],2/15
same,Animals With Seizures (%),PZT-induced seizures; [15],(13%)
same,Duration of Seizure,PZT-induced seizures; [15],2.69 s
same,Minutes to Seizure Onset,PZT-induced seizures; [15],41.98 min
N.N.O=C([O-])C1(C(=O)[O-])CCC1.[Pt+2] [carboplatin],Absolute Brain Levels,[1]; IV,29.47 nCi/gram
same,"Absolute Tissue Levels (Peripheral Organs), excludes kidney",[1]; IV,0.03
same,Relative Brain Selectivity (Brain/Blood),[1]; IV,0.03
same,"Relative Peripheral Selectivity (Peripheral/Blood), excludes kidney",[1]; IV,0.44
same,Plasma Levels of 14C,[1]; IV,994.348
same,Absolute Tissue Levels (Peripheral Organs) (% Difference),[1]; Lung vs IV,+2833%
same,Plasma Levels (% Difference),[1]; Lung vs IV,−89.72%
same,Absolute Brain Levels,[1]; Lung,27.29 nCi/gram
same,"Absolute Tissue Levels (Peripheral Organs), excludes kidney",[1]; Lung,0.88
same,Relative Brain Selectivity (Brain/Blood),[1]; Lung,0.88
same,"Relative Peripheral Selectivity (Peripheral/Blood), excludes kidney",[1]; Lung,0.65
same,Plasma Levels of 14C,[1]; Lung,102.215
same,"Absolute levels of 14C in peripheral tissue, lower relative to IV",[1]; pulmonary vs IV,92%
